# US11207289B2, “Use of benzofuran lignans to induce IL-25 expression and suppress mammary tumor metastasis” (ACADEMIA SINICA, priority 2016, dated 2021)
# What was measured:
# [1] = test system: MDA-MB-231-Luc2 cells; test: MDA-MD-231-Luc2 tumor resection model in nude mice: metastasis and survival; format: in vivo; settings: Q2-3 100 μg/kg, DT 5 mg/kg
# [2] = test system: 4T1-Luc2 cells; test: 4T1-Luc2 mammary carcinoma tumor resection model: metastasis and survival; format: in vivo, BALB/c mice
# Method: BALB/c mice were subcutaneously injected with 4T1-Luc2 cells (5×10^5/100 μl PBS/mouse) into the fourth mammary fat pad under isoflurane anesthesia. Tumor growth was monitored by measuring the tumor volume according to the formula: volume=length×(width)^2/2. After tumors were established (180-200 mm^3) on day 14, test mice were divided into different groups (8 mice/group) and subjected to different treatments. At 15 days post tumor cell implantation, primary 4T1 tumors in situ were surgically removed by a tumor resection process. For drug treatment, mice were administered with different agents, including vehicle-control (PBS), mouse IL-25 protein (10 μg/kg, ProSpec, Vineland, N.J.), Q2-3 (2, […]; […]), by intravenous injection for 3 weeks (3 injections/week) post tumor resection. For in vivo neutralization of mouse IL-25 activity, mice were treated intraperitoneally with either 100 μg anti-mouse IL-25 (IL-17E) antibody (clone 35B; Biolegend) or isotype control rat IgG (100 μg; rat, IgG1κ; Biolegend) at days 0, 3, 6, 9, 12, 15, 18 post tumor resection. To detect metastasis of human MDA-MD-231-Luc2 tumor cells, nude mice were injected subcutaneously with 5×10^5 MDA-MD-231-Luc2 cells into the mammary fat pad under isoflurane anesthesia. After tumors were established (250-350 mm^3) on day 24, test mice were divided into different groups (8 mice/group) and subjected to different treatments. At 25 days post tumor cell implantation, primary MDA-MD-231-Luc2 tumors in situ were surgically removed by a tumor resection process. […] Bioluminescence signals from the 4T1-luc2 tumor cells in test mice were analyzed using a non-invasive IVIS imaging system (Calipers, Hopkinton, Mass.) after intraperitoneal injection of 150 mg/kg D-luciferin (NanoLight technology, Pinetop, Ariz.).
# Statistical analysis was performed using an unpaired, two-tailed Student's t-test. […] Differences in tumor metastasis or mouse survival rate were determined by a log-rank (Mantel-Cox) test of the Kaplan-Meier curves. […]
# [3] = MTT assay, cytotoxic effect on M10; format: cell-based; settings: human, M10 cells (normal human mammary epithelial cell line)
# Method: M10, WI38, SKBR3, and MDA-MB-231 cells (1×10^5 cells/ml) dispensed in 96-well plates were incubated with vehicle or test compounds (Q2-3) for 24 h or 72 h in corresponding basal medium in a 5% CO2 incubator. To evaluate the effect of secreted IL-25 from Q2-3-treated fibroblasts on growth activity of mammary tumor cells, 4T1 and MDA-MB-231 cells (1×10^4 cells/ml) dispensed in 96-well plates were incubated with control medium or different fibroblast conditioned media (200 μl/ml) which was changed daily for 5 days. All treatments were performed in triplicate cell cultures. The growth activity of cells was assayed using a 3-(4, 5-dimethythiazol-2-yl)-2, 5-diphenyl tetrazolium bromide (MTT; Sigma-Aldrich) colorimetric method. The absorbance at 570 nm (A570) was measured using a multiwall scanning spectrophotometer.
# FIG. 1 is a schematic depiction of cytotoxic effects of dihydrobenzofuran lignan (Q2-3) on breast tumor cells. (a): Scheme for synthesis of Q2-3 (methyl (E)-3-[2-(3,4-dihydroxyphenyl)-7-hydroxy-3-methoxycarbonyl-2,3-dihydro-1-benzofuran-5yl]prop-2-enoate) from two caffeic acid methyl ester molecules. […] The beginning cytotoxic dosage of Q2-3 was detected at 0.3 μM, with >50% kill rate on SKBR3 and MDA-MB-231 cells. […]
smiles,measurement,setting,value
"COC(=O)/C=C/c1cc(O)c2c(c1)C(C(=O)OC)C(c1ccc(O)c(O)c1)O2 (stereo not drawn) [Q2-3, methyl(E)-3-[2-(3,4-dihydroxyphenyl)-7-hydroxy-3-methoxycarbonyl-2,3-dihydro-1-benzofuran-5yl]-prop-2-enoate]",survival rate,[1],more effective than treatment with DT
same,anti-metastatic activity (luminescent activity of MDA-MB-231-Luc2 cells),[1]; i.v. 3 weeks post tumor resection,more effective than treatment with DT
same,survival rate of tumor-resected mice,[2]; 4T1 tumor resection model,significantly increased
same,metastasis of 4T1 cells to the lung (luminescent activity),"[2]; ≥20 μg/kg i.v., 3 injections/week for 3 weeks post tumor resection",significantly suppress
same,anti-metastatic activity compared with doxorubicin (2 mg/kg),"[2]; ≥20 μg/kg, luciferase activity",much higher anti-metastatic activity than treatment with doxorubicin
same,viability at 2 µM,[3],≥ 80%
